For twelve compounds, CC50, IC50 and inhibition results are on record in ChEMBL document CHEMBL5053552, “Design, Synthesis, and Antiviral activity of 1,2,3,4-Tetrahydropyrimidine derivatives acting as novel entry inhibitors to target at "Phe43 cavity" of HIV-1 gp120” (Bioorg Med Chem, 2021).

Activity calls are given as the source filed them. The calls are words filed in the database; no cut-off is given here.

The nature of series [1]: Cytotoxicity against human SUP-T1 cells assessed as reduction in cell viability measured after 16 hrs by MTT assay. The series is classed as cell-based. Background: Tetrazolium dyes change colour on reduction, which living cells bring about.
In series [2] the test system is Human immunodeficiency virus 1. The series can be described thus: Antiviral activity against HIV1 931N101 infected in human SupT1 cells assessed as inhibition of viral entry mesaured after 96 hrs by p24- ELISA assay. Type of series: functional, organism-based. Particulars: Human immunodeficiency virus 1, 931N101, SUP-T1, 96 h.
Series [3] concerns Human immunodeficiency virus 1. The series can be described thus: Antiviral activity against HIV1 931N101 infected in human SupT1 cells assessed as inhibition of viral entry at 2.2 uM mesaured after 96 hrs by p24- ELISA assay relative to control. The conditions noted are these: Human immunodeficiency virus 1, 931N101, SUP-T1. Type of series: functional. Background: An ELISA detects its analyte on a solid surface through an enzyme-linked reagent.

The test system of series [4] is SUP-T1. The series can be described thus: Inhibition of HIV1 gp120 interaction with CD4 in human SUP-T1 cells expressing CCR5, CXCR4 assessed as decrease in viral entry by fluorescent microscopic assay. The conditions noted are these: Human immunodeficiency virus 1. The series is classed as cell-based.

For the compound `CCOC(=O)C1=C(C)NC(=S)NC1c1ccccc1C` (configuration not stated), in series [1], the CC50 (commonly the concentration that lowers cell viability or growth by half) at 16 h was determined as 124 µM. Moreover, the IC50 (as a rule, the concentration that inhibits the measured activity by half) in series [2] is 5.2 µM.
In the case of `CCOC(=O)C1=C(C)NC(=S)NC1c1ccc(O)c(OC)c1` (configuration not stated), the inhibition (usually the percentage by which the read-out fell short of the control) at 2.2 µM in series [3] was determined as 50%. For the same compound, in series [1], the CC50 at 16 h is 101 µM. In series [2], the IC50 came to 2.2 µM. In addition, the inhibition entry in series [4] was “Active”.
With `CCOC(=O)C1=C(C)NC(=O)NC1c1ccc(O)c(OC)c1` (configuration not stated), the CC50 at 16 h in series [1] turned out to be 141 µM. The IC50 in series [2] came to 8.5 µM. Also, the inhibition result in series [4] was “Active”.
`CCOC(=O)C1=C(C)NC(=S)NC1c1ccc(Br)cc1` (configuration not stated): the CC50 at 16 h in series [1] turned out to be 136 µM. For the same compound, in series [2], the IC50 turned out to be 4.2 µM.
With `CCOC(=O)C1=C(C)NC(=S)NC1c1cccc(Cl)c1` (configuration not stated), the 50% cytotoxic concentration (CC50) at 16 h in series [1] was determined as 97.6 µM. Further, the half-maximal inhibitory concentration (IC50) in series [2] amounted to 3.5 µM.
As to `CCOC(=O)C1=C(C)NC(=O)NC1c1ccccc1C` (configuration not stated), the CC50 at 16 h in series [1] worked out at 136 µM. Also, in series [2], the 50% inhibitory concentration (IC50) is 9.5 µM.
In the same order, the values of `CCOC(=O)C1=C(C)NC(=O)NC1c1cc(Br)ccc1O` (configuration not stated) are 138 µM and 5.3 µM.
The corresponding values for `CCOC(=O)C1=C(C)NC(=O)NC1c1ccc(O)cc1` (configuration not stated) are 132 µM and 6 µM.
The corresponding values for `CCOC(=O)C1=C(C)NC(=S)NC1c1ccc(OC)cc1` (configuration not stated) are 110 µM and 4.5 µM.
As for `CCOC(=O)C1=C(C)NC(=S)NC1c1cc(Br)ccc1O` (configuration not stated), the cytotoxic concentration (CC50) at 16 h in series [1] came to 83.4 µM. Further, the half-maximal inhibitory concentration (IC50) in series [2] turned out to be 3.7 µM.
The corresponding values for `CCOC(=O)C1=C(C)NC(=S)NC1c1ccc(O)cc1` (configuration not stated) are 88.9 µM and 4 µM.
The corresponding values for `CCOC(=O)C1=C(C)NC(=O)NC1c1ccc(OC)cc1` (configuration not stated) are 103 µM and 6.2 µM.
